Test results published in the supplement of paper PMC10307832.

How the values were obtained:
Assay in all cases: relative viability (nuclei count vs DMSO), 5 days (fraction); higher = more cells survive
NCI-H441 = system: NCI-H441
Summary of the method: (§1)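 Relative viability divides the nuclei count in treated wells by that in vehicle wells. Lung cancer cell lines were seeded in 1536-well plates, dosed by pin tool the next day, and fixed and stained after 5 days in one step with final 0.05% Triton X-100, 1% formaldehyde and 1 ug/ml Hoechst. Dosing was a single drug or a fixed anchor-drug dose plus five library-drug doses (not always all listed) in √10 steps, and values are medians of duplicate plates imaged at 4×.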

NCI-H1792 = system: NCI-H1792
Summary of the method: as §1

NCI-H1975 = system: NCI-H1975
Summary of the method: as §1

COR-L 105 = system: COR-L 105
Summary of the method: as §1

H3255 = system: H3255
Summary of the method: as §1

NCI-H2009 = system: NCI-H2009
Summary of the method: as §1

NCI-H1355 = system: NCI-H1355
Summary of the method: as §1

ABC-1 = system: ABC-1
Summary of the method: as §1

NCI-H2228 = system: NCI-H2228
Summary of the method: as §1

ChaGo-K-1 = system: ChaGo-K-1
Summary of the method: as §1

EPLC-272H = system: EPLC-272H
Summary of the method: as §1

NCI-H460 = system: NCI-H460
Summary of the method: as §1

HCC-827 = system: HCC-827
Summary of the method: as §1

NCI-H322M = system: NCI-H322M
Summary of the method: as §1

EKVX = system: EKVX
Summary of the method: as §1

NCI-H1993 = system: NCI-H1993
Summary of the method: as §1

CAL-12T = system: CAL-12T
Summary of the method: as §1

HCC-366 = system: HCC-366
Summary of the method: as §1

NCI-H2087 = system: NCI-H2087
Summary of the method: as §1

NCI-H2085 = system: NCI-H2085
Summary of the method: as §1

CN1CCN(CCOc2cc(OC3CCOCC3)c3c(Nc4c(Cl)ccc5c4OCO5)ncnc3c2)CC1 [Saracatinib] + CC(C)C[C@H](NC(=O)[C@H](Cc1ccccc1)NC(=O)c1cnccn1)B(O)O [Bortezomib] (partner 0.002 µM)
relative viability (NCI-H441; first compound 0.02 µM): 0.451 | relative viability (NCI-H441; first compound 0.2 µM): 0.562 | relative viability (NCI-H441; first compound 0.6325 µM): 1.03 | relative viability (NCI-H441; first compound 2 µM): 0.831 | relative viability (NCI-H1792; first compound 0.02 µM): 0.956 | relative viability (NCI-H1792; first compound 0.2 µM): 0.344 | relative viability (NCI-H1792; first compound 0.6325 µM): 1.06 | relative viability (NCI-H1792; first compound 2 µM): 0.914 | relative viability (NCI-H1975; first compound 0.02 µM): 0.356 | relative viability (NCI-H1975; first compound 0.6325 µM): 0.443 | relative viability (NCI-H1975; first compound 2 µM): 0.331 | relative viability (COR-L 105; first compound 0.02 µM): 1.11 | relative viability (COR-L 105; first compound 0.2 µM): 0.699 | relative viability (COR-L 105; first compound 0.6325 µM): 0.707 | relative viability (COR-L 105; first compound 2 µM): 0.432 | relative viability (H3255; first compound 0.02 µM): 0.864 | relative viability (H3255; first compound 0.2 µM): 0.892 | relative viability (H3255; first compound 0.6325 µM): 0.812 | relative viability (H3255; first compound 2 µM): 0.272 | relative viability (NCI-H2009; first compound 0.02 µM): 1.01 | relative viability (NCI-H2009; first compound 0.2 µM): 0.912 | relative viability (NCI-H2009; first compound 0.6325 µM): 1.03 | relative viability (NCI-H2009; first compound 2 µM): 0.747 | relative viability (NCI-H1355; first compound 0.02 µM): 1.18 | relative viability (NCI-H1355; first compound 0.2 µM): 1.15 | relative viability (NCI-H1355; first compound 0.6325 µM): 1.44 | relative viability (NCI-H1355; first compound 2 µM): 1.17 | relative viability (ABC-1; first compound 0.02 µM): 0.275 | relative viability (ABC-1; first compound 0.2 µM): 0.282 | relative viability (ABC-1; first compound 0.6325 µM): 0.312 | relative viability (ABC-1; first compound 2 µM): 0.317 | relative viability (NCI-H2228; first compound 0.02 µM): 1.05 | relative viability (NCI-H2228; first compound 0.2 µM): 0.684 | relative viability (NCI-H2228; first compound 0.6325 µM): 1.2 | relative viability (NCI-H2228; first compound 2 µM): 0.652 | relative viability (ChaGo-K-1; first compound 0.02 µM): 1.1 | relative viability (ChaGo-K-1; first compound 0.2 µM): 0.866 | relative viability (ChaGo-K-1; first compound 0.6325 µM): 1.05 | relative viability (ChaGo-K-1; first compound 2 µM): 0.79 | relative viability (EPLC-272H; first compound 0.02 µM): 0.812 | relative viability (EPLC-272H; first compound 0.2 µM): 0.786 | relative viability (EPLC-272H; first compound 0.6325 µM): 1.2 | relative viability (EPLC-272H; first compound 2 µM): 0.932 | relative viability (NCI-H460; first compound 0.02 µM): 1.05 | relative viability (NCI-H460; first compound 0.2 µM): 0.51 | relative viability (NCI-H460; first compound 0.6325 µM): 1.12 | relative viability (NCI-H460; first compound 2 µM): 1.03 | relative viability (HCC-827; first compound 0.02 µM): 0.965 | relative viability (HCC-827; first compound 0.2 µM): 0.963 | relative viability (HCC-827; first compound 0.6325 µM): 0.479 | relative viability (HCC-827; first compound 2 µM): 0.306 | relative viability (NCI-H322M; first compound 0.02 µM): 1.23 | relative viability (NCI-H322M; first compound 0.2 µM): 1.14 | relative viability (NCI-H322M; first compound 0.6325 µM): 1.23 | relative viability (NCI-H322M; first compound 2 µM): 0.988 | relative viability (EKVX; first compound 0.02 µM): 0.961 | relative viability (EKVX; first compound 0.2 µM): 0.861 | relative viability (EKVX; first compound 0.6325 µM): 1.16 | relative viability (EKVX; first compound 2 µM): 0.347 | relative viability (NCI-H1993; first compound 0.02 µM): 1.18 | relative viability (NCI-H1993; first compound 0.2 µM): 0.559 | relative viability (NCI-H1993; first compound 2 µM): 0.67 | relative viability (CAL-12T; first compound 0.02 µM): 0.944 | relative viability (CAL-12T; first compound 0.2 µM): 0.949 | relative viability (CAL-12T; first compound 0.6325 µM): 1.24 | relative viability (CAL-12T; first compound 2 µM): 0.639 | relative viability (HCC-366; first compound 0.02 µM): 1.04 | relative viability (HCC-366; first compound 0.6325 µM): 0.935 | relative viability (HCC-366; first compound 2 µM): 0.769 | relative viability (NCI-H2087; first compound 0.02 µM): 0.87 | relative viability (NCI-H2087; first compound 0.2 µM): 0.608 | relative viability (NCI-H2087; first compound 0.6325 µM): 0.856 | relative viability (NCI-H2087; first compound 2 µM): 0.711 | relative viability (NCI-H2085; first compound 0.02 µM): 1.07 | relative viability (NCI-H2085; first compound 0.2 µM): 0.91 | relative viability (NCI-H2085; first compound 0.6325 µM): 1.13 | relative viability (NCI-H2085; first compound 2 µM): 1.11
